Reference: patent US9127291B2, “Methods and products for biasing cellular development” (University of Central Florida Research Foundation, Inc., priority 2004, dated 2015)

System: multipotent stem cells
Assay: Nkx2-5-transfected multipotent stem cells cocultured with rat cardiomyocytes
Type: cell-based, human
Details: coculture with rat cardiomyocytes
From the text: Red=human specific Troponin I, Green=Human cells. Following transfection, multipotent stem cells were cocultured with rat cardiomyocytes that provide environmental signals to allow the transfected cells to develop properly.

## Nkx2-5: developmental control gene Nkx2-5 (SEQ ID NO: 12) transfected into multipotent stem cells (DNA TGCTGGCATGTCCGCTGTCT; listed as DNA, chemistry not given here)
  biasing of differentiation (human specific Troponin I staining): biases the differentiation toward the development of cardiac cells
